Experimental data taken from PubChem BioAssay (NCI).
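Five compound concentrations were applied to cells in 96-well plates for 48 hours; endpoints were derived by simple linear interpolation of the resulting dose-response curve. TGI marks complete inhibition of growth.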

Columns and labels:
Assay in all cases: NCI-60 cell line screen, 48 h
NCI/ADR-RES ovarian = tested on: NCI/ADR-RES ovarian
786-0 renal = tested on: 786-0 renal
IGROV1 ovarian = tested on: IGROV1 ovarian
UACC-62 melanoma = tested on: UACC-62 melanoma
HS 578T breast = tested on: HS 578T breast
M14 melanoma = tested on: M14 melanoma
TK-10 renal = tested on: TK-10 renal
A498 renal = tested on: A498 renal
NCI-H522 lung = tested on: NCI-H522 lung
EKVX NSCLC = tested on: EKVX NSCLC
HOP-62 NSCLC = tested on: HOP-62 NSCLC
COLO 205 colon = tested on: COLO 205 colon
DU-145 prostate = tested on: DU-145 prostate
NCI-H23 lung = tested on: NCI-H23 lung
UO-31 renal = tested on: UO-31 renal
RPMI-8226 leukemia = tested on: RPMI-8226 leukemia
OVCAR-4 ovarian = tested on: OVCAR-4 ovarian
KM12 colon = tested on: KM12 colon
OVCAR-8 ovarian = tested on: OVCAR-8 ovarian
SW-620 colon = tested on: SW-620 colon
OVCAR-5 ovarian = tested on: OVCAR-5 ovarian
SK-MEL-5 melanoma = tested on: SK-MEL-5 melanoma
OVCAR-3 ovarian = tested on: OVCAR-3 ovarian
MDA-N = tested on: MDA-N
SK-OV-3 ovarian = tested on: SK-OV-3 ovarian
HCT-116 colon = tested on: HCT-116 colon
RXF 393 renal = tested on: RXF 393 renal
PC-3 prostate = tested on: PC-3 prostate
LOX IMVI melanoma = tested on: LOX IMVI melanoma
SNB-19 CNS = tested on: SNB-19 CNS
SNB-75 CNS = tested on: SNB-75 CNS
SK-MEL-28 melanoma = tested on: SK-MEL-28 melanoma
NCI-H226 lung = tested on: NCI-H226 lung
K-562 leukemia = tested on: K-562 leukemia
BT-549 breast = tested on: BT-549 breast
HCT-15 colon = tested on: HCT-15 colon
SK-MEL-2 melanoma = tested on: SK-MEL-2 melanoma
MOLT-4 leukemia = tested on: MOLT-4 leukemia
CCRF-CEM leukemia = tested on: CCRF-CEM leukemia
UACC-257 melanoma = tested on: UACC-257 melanoma
SF-295 CNS = tested on: SF-295 CNS
MDA-MB-231 breast = tested on: MDA-MB-231 breast
A549 NSCLC = tested on: A549 NSCLC
HOP-92 NSCLC = tested on: HOP-92 NSCLC
SN12C renal = tested on: SN12C renal
SF-268 CNS = tested on: SF-268 CNS
CAKI-1 renal = tested on: CAKI-1 renal
ACHN renal = tested on: ACHN renal
T-47D breast = tested on: T-47D breast
HT29 colon = tested on: HT29 colon
MALME-3M melanoma = tested on: MALME-3M melanoma
MDA-MB-435 = tested on: MDA-MB-435
U251 CNS = tested on: U251 CNS
HCC-2998 colon = tested on: HCC-2998 colon
HL-60(TB) leukemia = tested on: HL-60(TB) leukemia
NCI-H460 lung = tested on: NCI-H460 lung
SF-539 CNS = tested on: SF-539 CNS
MCF7 breast = tested on: MCF7 breast
SR leukemia = tested on: SR leukemia

Measured: TGI

COc1ccc(/C=N/Nc2nnc3c(n2)c2ccccc2c2nn(-c4ccccc4Cl)nc23)cc1
not listed: HCC-2998 colon | HL-60(TB) leukemia | NCI-H460 lung | SF-539 CNS | MCF7 breast | SR leukemia
> 100 µM: all other assays above

CCOC(=O)c1cn(CC)c2ccc3c(c2c1=O)S(=O)(=O)C=C3
not listed: SR leukemia
> 100 µM: all other assays above

COC(=O)c1ccccc1C1CN=NC12Cc1c(C)ccc(C)c1C2=O (stereo not given)
not listed: RPMI-8226 leukemia | SR leukemia
> 100 µM: all other assays above

CC(C)=Nn1cnc2c1NC(C)(C)N=C2C(N)=O
8.19 µM: T-47D breast
7.64 µM: MDA-MB-231 breast
not listed: NCI/ADR-RES ovarian | UACC-62 melanoma | A498 renal | HOP-62 NSCLC | COLO 205 colon | RPMI-8226 leukemia | SW-620 colon | SK-OV-3 ovarian | HCT-116 colon | PC-3 prostate | LOX IMVI melanoma | SK-MEL-28 melanoma | HCT-15 colon | SK-MEL-2 melanoma | HOP-92 NSCLC | SN12C renal | CAKI-1 renal | HT29 colon | MALME-3M melanoma | HCC-2998 colon
> 10 µM: all other assays above

COc1ccc(/C=N/NC(=S)Nc2cc(C)ccc2OC)cc1
88.8 µM: BT-549 breast
59.5 µM: EKVX NSCLC
73 µM: OVCAR-5 ovarian
41.9 µM: SR leukemia
65.2 µM: MALME-3M melanoma
73.8 µM: NCI-H23 lung
43.8 µM: SK-MEL-2 melanoma
70.7 µM: MDA-N
70.9 µM: 786-0 renal
55.9 µM: NCI-H522 lung
66.7 µM: HL-60(TB) leukemia
32.7 µM: COLO 205 colon
49.3 µM: SF-539 CNS
68.6 µM: SN12C renal
79.4 µM: HT29 colon
13 µM: K-562 leukemia
27.6 µM: RPMI-8226 leukemia
30 µM: SK-MEL-5 melanoma
29.2 µM: MOLT-4 leukemia
65.6 µM: M14 melanoma
72 µM: HOP-92 NSCLC
not listed: TK-10 renal | NCI-H226 lung | UACC-257 melanoma | MDA-MB-231 breast | U251 CNS | HCC-2998 colon | NCI-H460 lung
> 100 µM: all other assays above

Cc1cc(C)n2c(nc3ccccc32)c1C#N
79.8 µM: HOP-92 NSCLC
not listed: HS 578T breast | NCI-H522 lung | HOP-62 NSCLC | RPMI-8226 leukemia | KM12 colon | SNB-75 CNS | SF-268 CNS | NCI-H460 lung | SR leukemia
> 100 µM: all other assays above

c1cc2c(cc1[C@@H]1OC[C@@H]3[C@H]1CO[C@H]3c1ccc3c(c1)OCO3)OCO2
33.6 µM: SK-MEL-5 melanoma
89.3 µM: RXF 393 renal
83.6 µM: EKVX NSCLC
80.7 µM: UACC-257 melanoma
93.8 µM: TK-10 renal
71 µM: KM12 colon
not listed: HS 578T breast | BT-549 breast | SR leukemia
> 100 µM: all other assays above

C=CCN1C(=O)CC(=O)N(NC2=NNC3(C(=O)N2)c2ccccc2-c2ccccc23)C1=S
66.1 µM: HS 578T breast
45 µM: COLO 205 colon
61.8 µM: HOP-92 NSCLC
96.3 µM: NCI-H522 lung
74.5 µM: SK-MEL-2 melanoma
66.2 µM: HL-60(TB) leukemia
82.5 µM: NCI-H226 lung
61.1 µM: SR leukemia
not listed: RPMI-8226 leukemia | KM12 colon | MOLT-4 leukemia | T-47D breast
> 100 µM: all other assays above
